Source: paper PMC5584945, “Evaluation of robenidine analog NCL195 as a novel broad-spectrum antibacterial agent” (PLoS ONE, 2017)
In brackets after ≈: the same amount, converted by molar mass. Like-named read-outs stand apart in the source and are kept apart here.

Key:
[1] = test system: Enterococcus faecalis ATCC 29212; assay: MIC, broth micro-dilution (CLSI), control strain; type: cell-based
Description: MICs for NCL812 and its analogs (serial two-fold dilutions commencing at 128 μg/ml) were determined (in duplicate) in round bottom 96-well microtitre trays (Sarstedt 82.1582.001), using the broth micro-dilution method recommended by the Clinical and Laboratory Standards Institute (CLSI). […] MIC50, MIC90 and MIC range for NCL812, NCL195 and NCL219 were calculated against each S. pneumoniae, S. aureus or VRE isolate. To assess the potential activity of NCL195 against Gram-negative bacteria, MICs against Acinetobacter spp, E. coli, K. pneumoniae, P. aeruginosa, Proteus spp and Neisseria meningitidis were performed in the presence or absence of 0.08 mM-20 mM EDTA in a standard checkerboard assay.

S. aureus = assay: MIC, broth micro-dilution (CLSI); type: cell-based, Staphylococcus aureus; settings: Staphylococcus aureus; for MIC: read-out: MIC
[2] = ATCC 29213 / MSSA, ATCC29213 MSSA (ST5), absence of FBS
[3] = IRISH 1 – HA-EMRSA (ST8), absence of FBS
[4] = IRISH 2 – HA-EMRSA (ST8), absence of FBS
[5] = MRSA / USA300, USA 300 - MRSA (ST8), absence of FBS
[6] = MRSA, AUS2-MRSA (ST239), absence of FBS
[7] = MRSA, AUS3-MRSA (ST239), absence of FBS
[8] = MRSA, BENGAL BAY PVL+ – CA-MRSA (ST772), absence of FBS
[9] = MRSA, Classic–HA-MRSA (ST250), absence of FBS
[10] = MRSA, NY JAPAN – HA MRSA (ST5), absence of FBS
[11] = MRSA, QLD PVL+ –CA-MRSA (ST93), absence of FBS
[12] = MRSA, ST398–CA-MRSA-V (ST398), absence of FBS
[13] = MRSA, WSPP – PVL neg CA MRSA (ST30), absence of FBS
[14] = S2 Table isolates, absence of FBS
[15] = TAIWAN PVL+ – CA-cMRSA (ST59), absence of FBS
[16] = UK 15 PVL+ – HA-EMRSA (ST22), absence of FBS
[17] = UK 15 – HA-EMRSA (ST22), absence of FBS
[18] = UK 16 – HA- EMRSA (ST36), absence of FBS
[19] = UK 17 – HA-EMRSA (ST247), absence of FBS

SMILES | MIC ([1]; ATCC29212, absence of FBS) | MIC90 (S. aureus; 23 isolates) | MIC (S. aureus; [2]) | MIC (S. aureus; [3]) | MIC (S. aureus; [4]) | MIC (S. aureus; [5]) | MIC (S. aureus; [6]) | MIC (S. aureus; [7]) | MIC (S. aureus; [8]) | MIC (S. aureus; [9]) | MIC (S. aureus; [10]) | MIC (S. aureus; [11]) | MIC (S. aureus; [12]) | MIC (S. aureus; [13]) | MIC50 (S. aureus; [14]) | MIC90 (S. aureus; [14]) | MIC (S. aureus; [15]) | MIC (S. aureus; [16]) | MIC (S. aureus; [17]) | MIC (S. aureus; [18]) | other results
CC1(C)S[C@@H]2[C@H](NC(=O)[C@H](N)c3ccccc3)C(=O)N2[C@H]1C(=O)O [Ampicillin] | 2 µg/mL | > 16 µg/mL | 2 µg/mL (≈ 5.72 µM) | > 16 µg/mL | > 16 µg/mL | > 16 µg/mL | > 16 µg/mL | > 16 µg/mL | 8 µg/mL (≈ 22.9 µM) | > 16 µg/mL | > 16 µg/mL | > 16 µg/mL | > 16 µg/mL | > 16 µg/mL | > 16 µg/mL | > 16 µg/mL | 8 µg/mL (≈ 22.9 µM) | 16 µg/mL (≈ 45.8 µM) | > 16 µg/mL | > 16 µg/mL | MIC (S. aureus; [19]): > 16 µg/mL
CCCCCCCCCC(=O)N[C@@H](Cc1c[nH]c2ccccc12)C(=O)N[C@H](CC(N)=O)C(=O)N[C@@H](CC(=O)O)C(=O)N[C@@H]1C(=O)NCC(=O)N[C@@H](CCCN)C(=O)N[C@@H](CC(=O)O)C(=O)N[C@H](C)C(=O)N[C@@H](CC(=O)O)C(=O)NCC(=O)N[C@H](CO)C(=O)N[C@@H]([C@H](C)CC(=O)O)C(=O)N[C@@H](CC(=O)c2ccccc2N)C(=O)O[C@@H]1C [Daptomycin, daptomycin] | 2 µg/mL | 0.5 µg/mL (≈ 0.309 µM) | 0.5 µg/mL (≈ 0.309 µM) | 0.5 µg/mL (≈ 0.309 µM) | 0.5 µg/mL (≈ 0.309 µM) | 0.5 µg/mL (≈ 0.309 µM) | 1 µg/mL (≈ 0.617 µM) | 0.5 µg/mL (≈ 0.309 µM) | 0.5 µg/mL (≈ 0.309 µM) | 0.5 µg/mL (≈ 0.309 µM) | 0.5 µg/mL (≈ 0.309 µM) | 0.25 µg/mL (≈ 0.154 µM) | 0.5 µg/mL (≈ 0.309 µM) | 0.5 µg/mL (≈ 0.309 µM) | 0.5 µg/mL (≈ 0.309 µM) | 0.5 µg/mL (≈ 0.309 µM) | 0.5 µg/mL (≈ 0.309 µM) | 0.5 µg/mL (≈ 0.309 µM) | 0.5 µg/mL (≈ 0.309 µM) | 0.5 µg/mL (≈ 0.309 µM) | MIC ([1]; ATCC29212, 10% FBS): 2 µg/mL; MIC (S. aureus; ATCC 12600 / MSSA, ATCC12600 [Xen29] (MSSA), 10% FBS): 0.5 µg/mL (≈ 0.309 µM); MIC (S. aureus; ATCC 12600 / MSSA, ATCC12600 [Xen29] (MSSA), absence of FBS): 0.5 µg/mL (≈ 0.309 µM); MIC (S. aureus; ATCC 49775 / MSSA, ATCC 49775 (MSSA), absence of FBS): 0.5 µg/mL (≈ 0.309 µM); MIC (S. aureus; [19]): 0.5 µg/mL (≈ 0.309 µM)
